Laboratory results published in the supplement of paper PMC10307832.

How the values were obtained:
Assay in all cases: relative viability (nuclei count vs DMSO), 5 days (fraction); higher = more cells survive
Pemetrexed + Olaparib = compound: Nc1nc2[nH]cc(CCc3ccc(C(=O)N[C@@H](CCC(=O)O)C(=O)O)cc3)c2c(=O)[nH]1 [Pemetrexed] + O=C(c1cc(Cc2n[nH]c(=O)c3ccccc23)ccc1F)N1CCN(C(=O)C2CC2)CC1 [Olaparib] (partner 8 µM)
Method in brief: (§1)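 After 5 days of treatment, lung cancer cells in 1536-well plates were fixed and stained in a single step (final 0.05% Triton X-100, 1% formaldehyde, 1 ug/ml Hoechst) and their nuclei counted on 4× images. Treatment had been applied by pin tool the day after seeding as one drug alone or as a fixed anchor-drug dose with five library-drug doses (not always all listed) in √10 steps. Relative viability is the nuclei count of treated wells divided by that of vehicle wells, and values are medians of duplicate plates.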

Idelalisib + Bortezomib = compound: CC[C@H](Nc1ncnc2[nH]cnc12)c1nc2cccc(F)c2c(=O)n1-c1ccccc1 [Idelalisib] + CC(C)C[C@H](NC(=O)[C@H](Cc1ccccc1)NC(=O)c1cnccn1)B(O)O [Bortezomib] (partner 0.002 µM)
Method in brief: as §1

Pemetrexed + Pictilisib = compound: Nc1nc2[nH]cc(CCc3ccc(C(=O)N[C@@H](CCC(=O)O)C(=O)O)cc3)c2c(=O)[nH]1 [Pemetrexed] + CS(=O)(=O)N1CCN(Cc2cc3nc(-c4cccc5[nH]ncc45)nc(N4CCOCC4)c3s2)CC1 [Pictilisib] (partner 1 µM)
Method in brief: as §1

Idelalisib + AZD7762 = compound: CC[C@H](Nc1ncnc2[nH]cnc12)c1nc2cccc(F)c2c(=O)n1-c1ccccc1 [Idelalisib] + NC(=O)Nc1cc(-c2cccc(F)c2)sc1C(=O)N[C@H]1CCCNC1 [AZD7762] (partner 0.2 µM)
Method in brief: as §1

Cell Line | relative viability (Pemetrexed + Olaparib; first compound 0.002 µM) | relative viability (Pemetrexed + Olaparib; first compound 0.006325 µM) | relative viability (Pemetrexed + Olaparib; first compound 0.02 µM) | relative viability (Pemetrexed + Olaparib; first compound 0.06325 µM) | relative viability (Pemetrexed + Olaparib; first compound 0.2 µM) | relative viability (Idelalisib + Bortezomib; first compound 0.04 µM) | relative viability (Idelalisib + Bortezomib; first compound 0.1265 µM) | relative viability (Idelalisib + Bortezomib; first compound 0.4 µM) | relative viability (Idelalisib + Bortezomib; first compound 1.265 µM) | relative viability (Idelalisib + Bortezomib; first compound 4 µM) | relative viability (Pemetrexed + Pictilisib; first compound 0.002 µM) | relative viability (Pemetrexed + Pictilisib; first compound 0.006325 µM) | relative viability (Pemetrexed + Pictilisib; first compound 0.02 µM) | relative viability (Pemetrexed + Pictilisib; first compound 0.06325 µM) | relative viability (Pemetrexed + Pictilisib; first compound 0.2 µM) | relative viability (Idelalisib + AZD7762; first compound 0.04 µM) | relative viability (Idelalisib + AZD7762; first compound 0.1265 µM) | relative viability (Idelalisib + AZD7762; first compound 0.4 µM) | relative viability (Idelalisib + AZD7762; first compound 1.265 µM) | relative viability (Idelalisib + AZD7762; first compound 4 µM)
NCI-H2023 | 0.431 | 0.463 | 0.456 | 0.36 | 0.158 | 1.11 | 1.09 | 0.681 | 1.03 | 0.871 | 0.136 | 0.231 | 0.237 | 0.218 | 0.117 |  |  |  |  | 
Calu-6 |  | 0.525 | 0.646 | 0.524 | 0.578 | 1.13 | 0.991 | 0.937 | 1.02 | 1.07 | 0.876 | 0.911 | 0.978 | 0.903 | 0.785 |  |  |  |  | 
SW 900 | 0.871 | 0.797 | 1.07 | 0.621 | 0.494 |  |  |  |  |  |  |  |  |  |  | 0.569 | 0.609 | 0.416 | 0.3 | 0.463
HOP-62 |  | 0.443 | 0.55 | 0.391 | 0.387 | 0.72 | 0.796 |  | 0.797 | 0.997 | 0.351 | 0.666 | 0.817 | 0.655 | 0.655 | 0.731 | 0.706 | 0.398 | 0.304 | 0.545
H3255 | 0.563 | 0.602 | 0.586 | 0.573 | 0.519 | 0.882 | 0.888 | 0.807 | 0.807 | 0.829 | 0.385 | 0.43 | 0.504 | 0.42 | 0.431 | 0.956 | 0.859 | 0.911 | 0.909 | 0.802
NCI-H1734 | 0.576 | 0.615 | 0.741 | 0.619 | 0.601 | 0.813 | 1.07 | 0.828 | 0.922 | 0.725 | 0.461 | 0.457 | 0.489 | 0.475 | 0.376 | 0.544 | 0.543 | 0.477 | 0.209 | 0.552
SK-MES-1 | 0.603 | 0.708 | 0.821 | 0.649 | 0.627 |  |  |  |  |  | 0.34 | 0.327 | 0.349 | 0.322 | 0.401 |  |  |  |  | 
NCI-H1792 | 0.44 | 0.405 | 0.397 | 0.497 | 0.46 | 0.552 | 0.952 | 0.844 | 0.968 | 0.843 | 0.252 | 0.298 | 0.325 | 0.255 | 0.252 | 0.737 | 0.803 | 0.452 | 0.493 | 0.388
EKVX | 0.794 | 0.796 | 0.884 | 0.883 | 0.499 | 1.1 | 0.986 | 1.01 | 0.87 | 0.808 | 0.408 | 0.441 | 0.418 | 0.432 | 0.269 | 0.706 | 0.698 | 0.596 | 0.558 | 0.64
EPLC-272H | 0.592 | 0.835 | 1.01 | 0.564 | 0.271 | 0.904 | 0.858 | 1.05 | 0.935 | 0.851 | 0.375 | 0.348 | 0.409 | 0.326 | 0.325 | 0.202 | 0.171 | 0.28 | 0.124 | 0.153
LK-2 | 0.761 | 0.817 | 0.745 | 0.519 | 0.622 |  |  |  |  |  |  | 0.472 | 0.654 | 0.466 | 0.41 | 0.637 | 0.395 |  | 0.27 | 0.371
CAL-12T | 0.706 | 0.616 | 0.804 | 0.694 | 0.692 | 1.08 | 1.12 | 0.856 | 1.24 | 0.936 | 0.426 | 0.484 | 0.451 | 0.416 | 0.389 | 0.843 | 0.653 | 0.713 | 0.398 | 0.654
NCI-H322M | 0.682 | 0.763 | 0.752 | 0.84 | 0.736 | 1.13 | 1.34 | 1.08 | 1.16 | 1.29 | 0.29 | 0.449 | 0.553 | 0.49 | 0.567 | 0.628 | 0.524 | 0.678 | 0.439 | 0.525
NCI-H1650 | 0.676 | 0.93 | 0.887 | 0.758 | 0.345 | 0.208 | 0.19 | 0.239 | 0.208 | 0.202 | 0.545 | 0.559 | 0.658 | 0.333 | 0.226 |  |  |  |  | 
NCI-H2342 | 0.409 | 0.407 | 0.467 | 0.452 | 0.424 |  |  |  |  |  |  |  |  |  |  | 0.626 | 0.498 | 0.49 | 0.484 | 0.46
SW 1573 | 0.477 | 0.45 | 0.472 | 0.423 | 0.43 | 1.06 | 0.972 | 1.02 | 0.928 | 0.865 | 0.421 | 0.475 | 0.488 | 0.533 | 0.463 |  |  |  |  | 
NCI-H2405 | 0.793 | 0.821 | 0.885 | 0.846 | 0.862 | 1.05 | 0.98 | 0.937 | 0.983 | 0.962 | 0.455 | 0.436 | 0.507 | 0.474 | 0.355 | 0.821 | 0.779 | 0.534 | 0.601 | 0.705
LCLC-103H | 0.732 | 0.707 | 0.791 | 0.78 | 0.679 | 1.07 | 1.24 | 1.04 | 1.04 | 0.911 | 0.639 | 0.588 | 0.714 | 0.61 | 0.669 | 0.757 | 0.809 | 0.724 | 0.786 | 0.652
HCC-44 | 0.97 | 0.952 | 0.987 | 0.964 | 0.909 | 0.825 | 0.946 | 0.908 | 0.984 | 0.825 | 1.52 | 0.61 | 0.654 | 0.537 | 0.395 | 1.04 | 0.998 | 1.03 | 0.991 | 1.11
